These results are taken from publication PMC10817170, “Effect of an NHE3 inhibitor in combination with an NPT2b inhibitor on gastrointestinal phosphate absorption in Rodent models” (PLOS ONE, 2024).

The structures appear in SMILES notation. Some results are limits rather than exact numbers.

For the assay, the target named is T1, Human Pit-2 (Homo sapiens, UniProt Q08357).
T1 construct: expressed in transfected cells; host or cells: CHO cells, constitutive expression
T1 sequence (Q08357 1-652): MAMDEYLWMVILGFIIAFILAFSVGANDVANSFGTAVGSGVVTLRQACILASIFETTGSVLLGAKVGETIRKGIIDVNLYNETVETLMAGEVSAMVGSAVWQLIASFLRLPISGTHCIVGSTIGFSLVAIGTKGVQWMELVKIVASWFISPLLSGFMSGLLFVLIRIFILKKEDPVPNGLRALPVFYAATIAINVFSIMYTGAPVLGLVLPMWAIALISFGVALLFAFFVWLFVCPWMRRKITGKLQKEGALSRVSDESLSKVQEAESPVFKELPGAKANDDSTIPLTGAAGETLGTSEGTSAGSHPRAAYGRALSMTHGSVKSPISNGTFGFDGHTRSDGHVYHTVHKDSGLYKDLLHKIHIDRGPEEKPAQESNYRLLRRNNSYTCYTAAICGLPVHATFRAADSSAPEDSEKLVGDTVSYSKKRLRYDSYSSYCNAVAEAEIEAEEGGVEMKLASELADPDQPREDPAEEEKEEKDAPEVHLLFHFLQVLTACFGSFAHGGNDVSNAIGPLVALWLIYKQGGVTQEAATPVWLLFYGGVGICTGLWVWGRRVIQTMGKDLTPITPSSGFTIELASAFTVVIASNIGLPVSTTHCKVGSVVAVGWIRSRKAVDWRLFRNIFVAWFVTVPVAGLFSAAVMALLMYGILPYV
As to the kind of experiment: Pit-2 activity assay (33P phosphate uptake in CHO cells). Format: cell-based. The note with it: n=1. The protocol:
Generation of constitutive human Pit-2 and SGLT1 overexpressing CHO cells and activity assays measuring the uptake of ^33P phosphate for 45 minutes at 20°C for Pit-2 and ^14C-α-methyl-D-glucopyranoside for 120 minutes at 37°C for SGLT1, were also described previously.

The compound `CN1Cc2c(Cl)cc(Cl)cc2[C@H](c2cccc(S(=O)(=O)NCCOCCOCCN/C(=N\C(N)=O)NCCCCN/C(=N/C(N)=O)NCCOCCOCCNS(=O)(=O)c3cccc([C@@H]4CN(C)Cc5c(Cl)cc(Cl)cc54)c3)c2)C1.Cl.Cl` [LY3304000, (Z)-[[4-[[(Z)-N’-carbamoyl-N-[2-[2-[2-[[3-[(4S)-6,8-dichloro-2-methyl-3,4-dihydro-1H-isoquinolin-4-yl]phenyl]sulfonylamino]ethoxy]ethoxy]ethyl]carbamimidoyl]amino]butylamino]-[2-[2-[2-[[3-[(4S)-6,8-dichloro-2-methyl-3,4-dihydro-1H-isoquinolin-4-yl]phenyl]sulfonylamino]ethoxy]ethoxy]ethylamino]methylene]urea dihydrochloride] yielded an IC50 of more than 100 µM.
